Assay results: ChEMBL document CHEMBL1255421, “In vitro fungicidal activities of echinocandins against Candida metapsilosis, C. orthopsilosis, and C. parapsilosis evaluated by time-kill studies” (2010)
Values after ≈ are worked out from the molar mass of the structure shown. Active and inactive are the calls of the source. The rule behind the calls is not given here. Numbered stars: 1 amine (or outer) side, 2 acyl side, 3 side chain; on linkers, the order of the positions; unused ones are H or OH. Bridge positions count the residues as written; N and C are the ends. Square brackets hold non-standard residues; d marks the D form. Peptide text beside a SMILES is read from it. * marks the point of attachment. hTyr(3S-OH,4S-OH,3'-OSO3H) = N[C@H](C(=O)O)[C@H](O)[C@@H](O)c1ccc(O)c(OS(=O)(=O)O)c1; Orn(4R-OH,5R-OH) = O=C([C@H](C[C@@H](O)[C@@H](O)N[*:3])N[*:1])[*:2]; Pro(3S-OH,4S-Me) = C[C@H]1CN[C@H](C(=O)O)[C@H]1O; X1 = CCCCCOc1ccc(-c2cc(-c3ccc(C(=O)*)cc3)no2)cc1; Gln(3R-OH) = NC(=O)C[C@@H](O)[C@H](N)C(=O)O; Hyp = O=C(O)[C@@H]1C[C@@H](O)CN1

What was measured:
Candida orthopsilosis [1] = experiment: Antifungal activity against Candida orthopsilosis clinical isolate bloodstream form assessed as time required for 99.9% reduction in fungal growth at 4 mg/L by time-kill assay; format: functional
Candida metapsilosis [2] = experiment: Antifungal activity against Candida metapsilosis clinical isolate bloodstream form assessed as time required for 50% reduction in fungal growth at 0.25 mg/L by time-kill assay; format: functional
Candida metapsilosis [3] = experiment: Antifungal activity against Candida metapsilosis clinical isolate bloodstream form assessed as time required for 50% reduction in fungal growth at 1 mg/L by time-kill assay; format: functional
Candida metapsilosis [4] = experiment: Antifungal activity against Candida metapsilosis clinical isolate bloodstream form assessed as time required for 50% reduction in fungal growth at 4 mg/L by time-kill assay; format: functional
Candida metapsilosis [5] = experiment: Antifungal activity against Candida metapsilosis clinical isolate bloodstream form assessed as time required for 50% reduction in fungal growth at 16 mg/L by time-kill assay; format: functional
Candida metapsilosis [6] = experiment: Antifungal activity against Candida metapsilosis clinical isolate bloodstream form assessed as time required for 90% reduction in fungal growth at 0.25 mg/L by time-kill assay; format: functional
Candida metapsilosis [7] = experiment: Antifungal activity against Candida metapsilosis clinical isolate bloodstream form assessed as time required for 90% reduction in fungal growth at 4 mg/L by time-kill assay; format: functional
Candida metapsilosis [8] = experiment: Antifungal activity against Candida metapsilosis clinical isolate bloodstream form assessed as time required for 90% reduction in fungal growth at 16 mg/L by time-kill assay; format: functional
Candida metapsilosis [9] = experiment: Antifungal activity against Candida metapsilosis clinical isolate bloodstream form assessed as time required for 99% reduction in fungal growth at 0.25 mg/L by time-kill assay; format: functional
Candida metapsilosis [10] = experiment: Antifungal activity against Candida metapsilosis clinical isolate bloodstream form assessed as time required for 99% reduction in fungal growth at 4 mg/L by time-kill assay; format: functional
Candida metapsilosis [11] = experiment: Antifungal activity against Candida metapsilosis clinical isolate bloodstream form assessed as time required for 99% reduction in fungal growth at 16 mg/L by time-kill assay; format: functional
Candida metapsilosis [12] = experiment: Antifungal activity against Candida metapsilosis clinical isolate bloodstream form assessed as time required for 99.9% reduction in fungal growth at 0.25 mg/L by time-kill assay; format: functional
Candida parapsilosis [13] = experiment: Antifungal activity against Candida parapsilosis clinical isolate bloodstream form assessed as time required for 50% reduction in fungal growth at 0.25 mg/L by time-kill assay; format: functional
Candida parapsilosis [14] = experiment: Antifungal activity against Candida parapsilosis clinical isolate bloodstream form assessed as time required for 50% reduction in fungal growth at 1 mg/L by time-kill assay; format: functional
Candida parapsilosis [15] = experiment: Antifungal activity against Candida parapsilosis clinical isolate bloodstream form assessed as time required for 50% reduction in fungal growth at 32 mg/L by time-kill assay; format: functional
Candida parapsilosis [16] = experiment: Antifungal activity against Candida parapsilosis clinical isolate bloodstream form assessed as time required for 90% reduction in fungal growth at 4 mg/L by time-kill assay; format: functional
Candida parapsilosis [17] = experiment: Antifungal activity against Candida parapsilosis clinical isolate bloodstream form assessed as time required for 90% reduction in fungal growth at 32 mg/L by time-kill assay; format: functional
Candida parapsilosis [18] = experiment: Antifungal activity against Candida parapsilosis clinical isolate bloodstream form assessed as time required for 99.9% reduction in fungal growth at 0.25 mg/L by time-kill assay; format: functional
Candida parapsilosis [19] = experiment: Antifungal activity against Candida parapsilosis clinical isolate bloodstream form assessed as time required for 99.9% reduction in fungal growth at 1 mg/L by time-kill assay; format: functional
Candida metapsilosis [20] = experiment: Antifungal activity against Candida metapsilosis clinical isolate bloodstream form assessed as time required for 99.9% reduction in fungal growth at 1 mg/L by time-kill assay; format: functional
Candida orthopsilosis [21] = experiment: Fungicidal activity against Candida orthopsilosis isolate CP-151 bloodstream form by CLSI method; format: functional; conditions: Lodderomyces orthopsilosis
Candida metapsilosis [22] = experiment: Fungicidal activity against Candida metapsilosis isolate CP-132 bloodstream form by CLSI method; format: functional; conditions: Lodderomyces metapsilosis
Candida metapsilosis [23] = experiment: Fungicidal activity against Candida metapsilosis isolate ATC193 bloodstream form by CLSI method; format: functional; conditions: Lodderomyces metapsilosis, isolate ATC-193
Candida parapsilosis [24] = experiment: Fungicidal activity against Candida parapsilosis isolate CP-300 bloodstream form by CLSI method; format: functional; conditions: Lodderomyces parapsilosis
Candida parapsilosis [25] = experiment: Fungicidal activity against Candida parapsilosis isolate CP-302 bloodstream form by CLSI method; format: functional; conditions: Lodderomyces parapsilosis
Candida parapsilosis [26] = experiment: Antifungal activity against Candida parapsilosis clinical isolate bloodstream form assessed as inhibition of fungal regrowth at 0.03 to 32 mg/L after 6 hrs by time-kill assay; format: functional, organism-based
Candida orthopsilosis [27] = experiment: Antifungal activity against Candida orthopsilosis clinical isolate bloodstream form assessed as induction of fungal killing rate at 0.03 to 32 mg/L measured at 6 hrs by time-kill assay; format: functional, organism-based
Candida metapsilosis [28] = experiment: Antifungal activity against Candida metapsilosis clinical isolate bloodstream form assessed as mild induction of fungal death at 0.03 to 32 mg/L after 6 hrs by time-kill assay; format: functional, organism-based
Candida orthopsilosis [29] = experiment: Antifungal activity against Candida orthopsilosis clinical isolate bloodstream form assessed as induction of maximal fungal death at 16 mg/L after 48 hrs by time-kill assay; format: functional, organism-based
Candida metapsilosis [30] = experiment: Antifungal activity against Candida metapsilosis clinical isolate bloodstream form assessed as induction of maximal fungal death at 32 mg/L after 48 hrs by time-kill assay; format: functional, organism-based
Candida orthopsilosis [31] = experiment: Antifungal activity against Candida orthopsilosis clinical isolate bloodstream form assessed as time required for 50% reduction in fungal growth at 1 mg/L by time-kill assay; format: functional
Candida orthopsilosis [32] = experiment: Antifungal activity against Candida orthopsilosis clinical isolate bloodstream form assessed as time required for 50% reduction in fungal growth at 32 mg/L by time-kill assay; format: functional
Candida orthopsilosis [33] = experiment: Antifungal activity against Candida orthopsilosis clinical isolate bloodstream form assessed as time required for 90% reduction in fungal growth at 4 mg/L by time-kill assay; format: functional
Candida orthopsilosis [34] = experiment: Antifungal activity against Candida orthopsilosis clinical isolate bloodstream form assessed as time required for 90% reduction in fungal growth at 16 mg/L by time-kill assay; format: functional
Candida orthopsilosis [35] = experiment: Antifungal activity against Candida orthopsilosis clinical isolate bloodstream form assessed as time required for 99% reduction in fungal growth at 0.25 mg/L by time-kill assay; format: functional
Candida orthopsilosis [36] = experiment: Antifungal activity against Candida orthopsilosis clinical isolate bloodstream form assessed as time required for 99% reduction in fungal growth at 1 mg/L by time-kill assay; format: functional
Candida metapsilosis [37] = experiment: Antifungal activity against Candida metapsilosis clinical isolate bloodstream form assessed as induction of miniparadoxical effect at 16 mg/L after 48 hrs by time-kill assay; format: functional, organism-based
Candida parapsilosis [38] = experiment: Antifungal activity against Candida parapsilosis clinical isolate bloodstream form assessed as fungal count at 4 mg/L measured at 6 hrs by time-kill assay; format: functional
Candida orthopsilosis [39] = experiment: Antifungal activity against Candida orthopsilosis clinical isolate bloodstream form assessed as induction of miniparadoxical effect at 16 mg/L after 48 hrs by time-kill assay; format: functional, organism-based
Candida orthopsilosis [40] = experiment: Antifungal activity against Candida orthopsilosis clinical isolate bloodstream form assessed as minimum concentration required for => 3-log decrease in fungal growth after 12 to 48 hrs by time-kill assay; format: functional

Compound | Time (Candida orthopsilosis [1]) [h] | Time (Candida metapsilosis [2]) [h] | Time (Candida metapsilosis [3]) [h] | Time (Candida metapsilosis [4]) [h] | Time (Candida metapsilosis [5]) [h] | Time (Candida metapsilosis [6]) [h] | Time (Candida metapsilosis [7]) [h] | Time (Candida metapsilosis [8]) [h] | Time (Candida metapsilosis [9]) [h] | Time (Candida metapsilosis [10]) [h] | Time (Candida metapsilosis [11]) [h] | Time (Candida metapsilosis [12]) [h] | Time (Candida parapsilosis [13]) | Time (Candida parapsilosis [14]) | Time (Candida parapsilosis [15]) [h] | Time (Candida parapsilosis [16]) [h] | Time (Candida parapsilosis [17]) [h] | Time (Candida parapsilosis [18]) | Time (Candida parapsilosis [19]) | Time (Candida metapsilosis [20]) [h] | other results
CCCCCOc1ccc(-c2cc(-c3ccc(C(=O)N[C@H]4C[C@@H](O)[C@@H](O)NC(=O)[C@@H]5[C@@H](O)[C@@H](C)CN5C(=O)[C@H]([C@H](O)CC(N)=O)NC(=O)[C@H]([C@H](O)[C@@H](O)c5ccc(O)c(OS(=O)(=O)O)c5)NC(=O)[C@@H]5C[C@@H](O)CN5C(=O)[C@H]([C@@H](C)O)NC4=O)cc3)no2)cc1 [MICAFUNGIN] (X1-[Orn(4R-OH,5R-OH)]T[Hyp][hTyr(3S-OH,4S-OH,3'-OSO3H)][Gln(3R-OH)][Pro(3S-OH,4S-Me)]; lactam 1-C) | 16.59 | >48 | 3.06 | 1.77 | 1.45 | >48 | 5.89 | 4.8 | >48 | 11.79 | 9.61 | >48 | inactive | inactive | 6.16 | >48 | 20.45 | inactive | inactive | 30.46 | MIC (Candida orthopsilosis [21]): 0.25 µg/mL (≈ 0.197 µM); MIC (Candida metapsilosis [22]): 0.5 µg/mL (≈ 0.394 µM); MIC (Candida metapsilosis [23]): 0.25 µg/mL (≈ 0.197 µM); MIC (Candida parapsilosis [24]): 0.25 µg/mL (≈ 0.197 µM); MIC (Candida parapsilosis [25]): 1 µg/mL (≈ 0.787 µM); inhibition (Candida parapsilosis [26]): inactive; Activity (Candida orthopsilosis [27]): inactive; Activity (Candida metapsilosis [28]): Active; Activity (Candida orthopsilosis [29]): Active; Activity (Candida metapsilosis [30]): Active; Time (Candida orthopsilosis [31]): 3.05 h; Time (Candida orthopsilosis [32]): 1.54 h; Time (Candida orthopsilosis [33]): 5.53 h; Time (Candida orthopsilosis [34]): 4.59 h; Time (Candida orthopsilosis [35]): >48 h; Time (Candida orthopsilosis [36]): 20.26 h
CC[C@H](C)C[C@H](C)CCCCCCCCC(=O)N[C@H]1C[C@@H](O)[C@@H](NCCN)NC(=O)[C@@H]2[C@@H](O)CCN2C(=O)[C@H]([C@H](O)CCN)NC(=O)[C@H]([C@H](O)[C@@H](O)c2ccc(O)cc2)NC(=O)[C@@H]2C[C@@H](O)CN2C(=O)[C@H]([C@@H](C)O)NC1=O [CASPOFUNGIN] | 34.05 | >48 | 22.3 | 7.7 | 2.59 | >48 | 25.58 | 8.61 | >48 | >48 | 17.21 | >48 | >48 h | 22.3 h | 1.99 | 25.58 | 6.6 | >48 h | >48 h | >48 | Activity (Candida metapsilosis [37]): Active; MIC (Candida orthopsilosis [21]): 0.5 µg/mL (≈ 0.457 µM); MIC (Candida metapsilosis [22]): 0.25 µg/mL (≈ 0.229 µM); MIC (Candida metapsilosis [23]): 0.12 µg/mL (≈ 0.11 µM); MIC (Candida parapsilosis [24]): 2 µg/mL (≈ 1.83 µM); MIC (Candida parapsilosis [25]): 2 µg/mL (≈ 1.83 µM); log10cfu (Candida parapsilosis [38]): 1.43 /ml; Activity (Candida orthopsilosis [39]): Active; inhibition (Candida parapsilosis [26]): inactive; Activity (Candida orthopsilosis [27]): inactive; Activity (Candida metapsilosis [28]): Active; Activity (Candida orthopsilosis [29]): Active; MED (Candida orthopsilosis [40]): 14 mg/L; Time (Candida orthopsilosis [31]): 7.45 h; Time (Candida orthopsilosis [32]): 10.53 h; Time (Candida orthopsilosis [33]): 11.35 h; Time (Candida orthopsilosis [34]): 12.82 h; Time (Candida orthopsilosis [35]): >48 h; Time (Candida orthopsilosis [36]): >48 h
